The values below come from ChEMBL document CHEMBL1142500, “'Reverse' alpha-ketoamide-based p38 MAP kinase inhibitors” (Bioorg Med Chem Lett, 2008).

One data set relates to THP-1. Briefly: Inhibition of LPS-induced TNFalpha production in human THP1 cells. In kind it is functional, cell-based.
Data set [1] is described as follows: Half life in rat at 30 mg/kg, po. In kind it is ADME, organism-based. Set-up: dose 30 mg/kg, route oral. The note with it: in vivo.
The nature of data set [2]: Tmax in rat at 30 mg/kg, po. In kind it is ADME, organism-based. Also noted: dose 30 mg/kg, route oral. Conditions: in vivo.
Data set [3] addresses T1, Mitogen-activated protein kinase 14 (Homo sapiens, UniProt Q16539). Briefly: Inhibition of human p38alpha.
A short description of data set [4]: Clearance in rat at 10 mg/kg, iv. In kind it is ADME, organism-based. Also noted: dose 10 mg/kg, route intravenous. The note with it: in vivo.
Data set [5] is described as follows: Volume of distribution at steady state in rat at 10 mg/kg, iv. Conditions: in vivo, read-out: Vdss. In kind it is ADME, organism-based. Also noted: dose 10 mg/kg, route intravenous.
Data set [6] can be described thus: AUC in rat at 30 mg/kg, po. In kind it is ADME, organism-based. Conditions: plasma. Also noted: dose 30 mg/kg, route oral.
A short description of data set [7]: Cmax in rat at 30 mg/kg, po. Also noted: dose 30 mg/kg, route oral. In kind it is ADME, organism-based. The note with it: in vivo.
Data set [8] concerns the target T1, Mitogen-activated protein kinase 14. Put plainly: Inhibition of human p38alpha phosphorylation.
Data set [9] can be described thus: Oral bioavailability in rat at 30 mg/kg. In kind it is ADME, organism-based. Conditions: in vivo.

T1 sequence (Q16539 whole entry): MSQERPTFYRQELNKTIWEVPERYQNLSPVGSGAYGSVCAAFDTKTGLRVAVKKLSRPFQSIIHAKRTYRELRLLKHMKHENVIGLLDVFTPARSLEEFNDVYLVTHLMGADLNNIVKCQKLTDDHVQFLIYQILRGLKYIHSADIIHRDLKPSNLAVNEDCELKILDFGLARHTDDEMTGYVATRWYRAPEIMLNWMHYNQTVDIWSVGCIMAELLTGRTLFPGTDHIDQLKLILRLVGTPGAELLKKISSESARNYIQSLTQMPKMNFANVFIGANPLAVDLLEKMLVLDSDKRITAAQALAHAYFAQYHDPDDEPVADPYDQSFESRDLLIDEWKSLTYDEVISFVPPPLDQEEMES

For `Cn1nc(C(C)(C)C)cc1NC(=O)C(=O)c1ccc(OCCN2CCOCC2)c2ccccc12`, in the data set on THP-1, the IC50 was 440 nM. That is a sub-micromolar value.
On to `Cc1cccc(-n2nc(C(C)(C)C)cc2/C(=N/O)C(=O)Nc2ccc(OCCN3CCOCC3)c3ccccc23)c1`, for which the half-life in data set [1] is 2.9 h. Moreover, the Tmax in data set [2] was determined as 1.5 h. In addition, the IC50 in data set [3] stood at 59 nM; in the data set with THP-1, 49 nM; in [8], 100 nM. Further, the clearance in [4] is 10.2 mL/min/kg. In [5], the Vd is 1.5 L/kg. In addition, the AUC in [6] amounted to 26000 ng·h/mL. The highest level in data set [7] (Cmax) was 4000 ng/mL. The compound further displayed a bioavailability in data set [9] of 54%.
Consider `Cc1oc(C(C)(C)C)cc1C(=O)C(=O)Nc1ccc(OCCN2CCOCC2)c2ccccc12`, for which the half-maximal inhibitory concentration (IC50) in data set [3] was 22 nM; with THP-1, 61 nM; in [8], 270 nM.
The corresponding values for `Cc1oc(C(C)(C)C)cc1C(=O)C(=O)Nc1ccc(-c2ccc(CN3CCOCC3)nc2)c2ccccc12` are 59 nM, 9 nM and 20 nM.
The compound `Cc1cccc(-n2nc(C(C)(C)C)cc2C(=O)C(=O)Nc2ccc(OCCN3CCOCC3)c3ccccc23)c1` showed an IC50 in the data set on THP-1 of 280 nM.
On the same count and under the same terms, under `Cc1ccc(-n2nc(C(C)(C)C)cc2C(=O)C(=O)Nc2ccc(OCCN3CCOCC3)c3ccccc23)cc1` stands 330 nM; under `CC(C)(C)c1cc(C(=O)C(=O)Nc2ccc(OCCN3CCOCC3)c3ccccc23)n(-c2ccc(F)c(F)c2)n1`, 180 nM.
Still for that read-out and setting: under `Cc1ccc(-n2nc(C(C)(C)C)cc2/C(=C/O)C(=O)Nc2ccc(OCCN3CCOCC3)c3ccccc23)cc1` stands 3300 nM; under `Cc1oc(C(C)(C)C)cc1C(=O)C(=O)Nc1ccc(Nc2ncccn2)c2ccccc12`, 460 nM; under `Cn1nc(C(C)(C)C)cc1NC(=O)C(=O)c1ccc(-c2ccc(CN3CCOCC3)nc2)c2ccccc12`, 850 nM.
As to `Cn1nc(C(C)(C)C)cc1C(=O)C(=O)Nc1ccc(OCCN2CCOCC2)c2ccccc12`, the half-inhibitory concentration (IC50) worked out at 14 nM in data set [3], 70 nM with THP-1 and 70 nM in [8].
Turning to `Cc1oc(C(C)(C)C)cc1C(=O)C(=O)Nc1ccc(Nc2ccncn2)c2ccccc12`, inhibition in the data set on THP-1 was half-maximal at 59 nM (IC50).
